In brackets after ≈: the same amount, converted by molar mass. Where two headings read alike, the source gives them in different places.
Assays:
A. baumannii = assay: MIC by broth microdilution, A. baumannii (WT); format: cell-based, Acinetobacter baumannii; details: for MIC: Acinetobacter baumannii
A. baumannii RpoB H535L = assay: microbe, parasite or virus in culture; format: cell-based, Acinetobacter baumannii; details: for MIC: Acinetobacter baumannii, RPOBH535L, 20 h
A. baumannii RpoB H535Q = assay: microbe, parasite or virus in culture; format: cell-based, Acinetobacter baumannii; details: for MIC: Acinetobacter baumannii, RPOBH535Q, 20 h
A. baumannii RpoB H535C = assay: microbe, parasite or virus in culture; format: cell-based, Acinetobacter baumannii; details: for MIC: Acinetobacter baumannii, RPOBH535C, 20 h
A. baumannii RpoB L542F = assay: microbe, parasite or virus in culture; format: cell-based, Acinetobacter baumannii; details: Acinetobacter baumannii, RPOBL542F, 20 h
[1] = test system: A. baumannii RpoB H535Q/S521T; assay: microbe, parasite or virus in culture; format: cell-based, Acinetobacter baumannii; details: Acinetobacter baumannii, RPOBH535Q/S521T
[2] = test system: H. influenzae (strain ATCC 49247); assay: MIC by broth microdilution, H. influenzae; format: cell-based, Hemophilus influenzae; details: for MIC: Haemophilus influenzae
[3] = test system: Staphylococcus epidermidis (strain ATCC 12228); assay: MIC by broth microdilution, S. epidermidis; format: cell-based; details: for MIC: Staphylococcus epidermidis
S. aureus = assay: MIC by broth microdilution, S. aureus; format: cell-based, Staphylococcus aureus; details: cation adjusted Mueller Hinton broth, 35° C. 20 hours
[4] = test system: Enterococcus faecium (strain NCTC 12204); assay: MIC by broth microdilution, E. faecium; format: cell-based; details: for MIC: Enterococcus faecium
[5] = test system: Enterococcus faecalis (strain ATCC 51575); assay: MIC by broth microdilution, E. faecalis; format: cell-based; details: for MIC: Enterococcus faecalis
[6] = test system: S. pneumoniae (strain ATCC 49619); assay: MIC by broth microdilution, S. pneumoniae; format: cell-based, Streptococcus pneumoniae; details: strain ATCC 49619, cation adjusted Mueller Hinton broth + 5% laked horse blood
[7] = test system: M. abscessus (strain ATCC 19977); assay: MIC by broth microdilution, M. abscessus; format: cell-based, Mycobacterium abscessus; details: strain ATCC 19977, Middlebrook 7H9 broth + ADC
[8] = test system: S. pyogenes (strain IHMA 1117021); assay: MIC by broth microdilution, S. pyogenes; format: cell-based, Streptococcus pyogenes; details: strain IHMA 1117021, cation adjusted Mueller Hinton broth + 5% laked horse blood
[9] = test system: M. smegmatis (strain ATCC 700084); assay: MIC, M. smegmatis (BacTiter-Glo); format: cell-based, Mycobacterium smegmatis; details: strain ATCC 700084, Middlebrook 7H9 + ADC, 90% growth inhibition, 20 hours
[10] = test system: M. tuberculosis (H37Rv strain ATCC 27294); format: cell-based, Mycobacterium tuberculosis
[11] = RPMI medium supplemented with 10% FCS, 35° C. 20 hours
[12] = read-out: A. baumannii MIC, RpoB H535L, Table 4, RPMI + FCS
[13] = read-out: MIC, RpoB mutation H535L, Table 5 part 2 c5, 1st H535L isolate, RPMI + 10% FCS
[14] = read-out: MIC, RpoB mutation H535L, Table 5 part 2 c6, 2nd H535L isolate, RPMI + 10% FCS
[15] = read-out: MIC, RpoB mutation H535L, Table 5 part 3 c1, 3rd H535L isolate, RPMI + 10% FCS
[16] = read-out: MIC, RpoB mutation H535L, Table 5 part 3 c6, 4th H535L isolate, RPMI + 10% FCS
[17] = read-out: MIC, RpoB mutation H535L, Table 5 part 3 c7, 5th H535L isolate, RPMI + 10% FCS
[18] = read-out: A. baumannii MIC, RpoB H535Q, Table 4, RPMI + FCS
[19] = read-out: MIC, RpoB mutation H535Q, Table 5 part 1 c2, 1st H535Q isolate, RPMI + 10% FCS
[20] = read-out: MIC, RpoB mutation H535Q, Table 5 part 1 c3, 2nd H535Q isolate, RPMI + 10% FCS
[21] = read-out: MIC, RpoB mutation H535Q, Table 5 part 1 c4, 3rd H535Q isolate, RPMI + 10% FCS
[22] = read-out: A. baumannii MIC, RpoB H535C, Table 4, RPMI + FCS
[23] = read-out: MIC, RpoB mutation H535C, Table 5 part 2 c1, 1st H535C isolate, RPMI + 10% FCS
[24] = read-out: MIC, RpoB mutation H535C, Table 5 part 2 c2, 2nd H535C isolate, RPMI + 10% FCS
[25] = read-out: MIC, RpoB mutation H535C, Table 5 part 2 c3, 3rd H535C isolate, RPMI + 10% FCS
[26] = read-out: MIC, RpoB mutation H535C, Table 5 part 2 c4, 4th H535C isolate, RPMI + 10% FCS
[27] = read-out: MIC, RpoB mutation L542F, Table 5 part 3 c2, 1st L542F isolate, RPMI + 10% FCS
[28] = read-out: MIC, RpoB mutation L542F, Table 5 part 3 c3, 2nd L542F isolate, RPMI + 10% FCS
[29] = read-out: MIC, RpoB mutation H535Q/S521T, Table 5 part 1 c5, 1st H535Q/S521T isolate, RPMI + 10% FCS
[30] = read-out: MIC, RpoB mutation H535Q/S521T, Table 5 part 1 c6, 2nd H535Q/S521T isolate, RPMI + 10% FCS

SMILES | MIC A. baumannii (A. baumannii; [11]) [µg/mL] | MIC (A. baumannii RpoB H535L; [12]) [µg/mL] | MIC (A. baumannii RpoB H535L; [13]) [µg/mL] | MIC (A. baumannii RpoB H535L; [14]) [µg/mL] | MIC (A. baumannii RpoB H535L; [15]) [µg/mL] | MIC (A. baumannii RpoB H535L; [16]) [µg/mL] | MIC (A. baumannii RpoB H535L; [17]) [µg/mL] | MIC (A. baumannii RpoB H535Q; [18]) [µg/mL] | MIC (A. baumannii RpoB H535Q; [19]) [µg/mL] | MIC (A. baumannii RpoB H535Q; [20]) [µg/mL] | MIC (A. baumannii RpoB H535Q; [21]) [µg/mL] | MIC (A. baumannii RpoB H535C; [22]) [µg/mL] | MIC (A. baumannii RpoB H535C; [23]) [µg/mL] | MIC (A. baumannii RpoB H535C; [24]) [µg/mL] | MIC (A. baumannii RpoB H535C; [25]) [µg/mL] | MIC (A. baumannii RpoB H535C; [26]) [µg/mL] | MIC (A. baumannii RpoB L542F; [27]) [µg/mL] | MIC (A. baumannii RpoB L542F; [28]) [µg/mL] | MIC [1, 29] [µg/mL] | MIC [1, 30] [µg/mL] | further results
CO[C@H]1/C=C/O[C@@]2(C)Oc3c(C)c(O)c4c(c3C2=O)C2=NC3(CC5CCC(C3)N5C)NC2=C(NC(=O)/C(C)=C\C=C\[C@H](C)[C@H](O)[C@@H](C)[C@@H](O)[C@@H](C)[C@H](OC(C)=O)[C@@H]1C)C4=O (single isomer, unassigned) [Compound 13B] | < 0.002 | 0.03 | 0.004 | ≤ 0.002 | 0.25 | 0.03 | 0.03 | ≤ 0.002 | ≤ 0.002 | 4 | 2 | ≤ 0.002 | ≤ 0.002 | 0.002 | 0.004 | 0.016 | 0.002 | 0.125 | 0.5 | 1 | MIC (A. baumannii; 20 h, read-out: A. baumannii MIC, WT, Table 4, RPMI + FCS): ≤ 0.002 µg/mL; MIC ([2]; ATCC49247, read-out: MIC H. influenzae): 0.125 µg/mL (≈ 0.15 µM); MIC ([3]; ATCC12228, read-out: MIC S. epidermidis): < 0.002 µg/mL; MIC S. aureus (S. aureus): 0.016 µg/mL (≈ 0.0193 µM); MIC ([4]; NCTC12204, read-out: MIC E. faecium): 0.125 µg/mL (≈ 0.15 µM); MIC ([5]; ATCC51575, read-out: MIC E. faecalis): 0.5 µg/mL (≈ 0.602 µM)
CO[C@H]1/C=C/O[C@@]2(C)Oc3c(C)c(O)c4c(c3C2=O)C2=NC3(CCN(CC(C)C)CC3)NC2=C(NC(=O)/C(C)=C\C=C\[C@H](C)[C@H](O)[C@@H](C)[C@@H](O)[C@@H](C)[C@H](OC(C)=O)[C@@H]1C)C4=O [Rifabutin, reference compound] |  | > 32 | 0.06 | 0.008 | > 32 | > 32 | > 32 | 0.004 | 0.03 | > 32 | 16 | 0.03 | 0.06 | 0.016 | 0.25 | > 32 | 0.004 | 1 | 32 | 16 | MIC (A. baumannii; 20 h, Table 4, RPMI + FCS, read-out: A. baumannii MIC, WT): ≤ 0.002 µg/mL; MIC (A. baumannii; read-out: MIC A. baumannii, RPMI medium supplemented with 10% FCS, 35° C. 20 hours): < 0.002 µg/mL; MIC ([2]; ATCC49247, strain ATCC 49247, Hemophilus test medium broth, read-out: MIC H. influenzae): 0.5 µg/mL (≈ 0.59 µM); MIC ([3]; ATCC12228, strain ATCC 12228, cation adjusted Mueller Hinton broth, read-out: MIC S. epidermidis): 0.004 µg/mL (≈ 0.00472 µM); MIC (S. aureus; Staphylococcus aureus, read-out: MIC S. aureus): 0.016 µg/mL (≈ 0.0189 µM); MIC ([4]; NCTC12204, strain NCTC 12204, cation adjusted Mueller Hinton broth, read-out: MIC E. faecium): 0.125 µg/mL (≈ 0.148 µM); MIC ([5]; ATCC51575, strain ATCC 51575, cation adjusted Mueller Hinton broth, read-out: MIC E. faecalis): 4 µg/mL (≈ 4.72 µM)
CO[C@H]1/C=C/O[C@@]2(C)Oc3c(C)c(O)c4c(c3C2=O)C2=NC3(CCCN(C)CC3)NC2=C(NC(=O)/C(C)=C\C=C\[C@H](C)[C@H](O)[C@@H](C)[C@@H](O)[C@@H](C)[C@H](OC(C)=O)[C@@H]1C)C4=O (single isomer, unassigned) [Compound 7A] | 0.004 (≈ 0.00488 µM) |  |  |  |  |  |  |  |  |  |  |  |  |  |  |  |  |  |  |  | A. baumannii MIC, WT (A. baumannii; Table 4, RPMI + FCS): 0.004 µg/mL; A. baumannii MIC, RpoB H535L (A. baumannii RpoB H535L; Table 4, RPMI + FCS): 1 µg/mL; MIC S. pneumoniae [6]: < 0.002 µg/mL; A. baumannii MIC, RpoB H535Q (A. baumannii RpoB H535Q; Table 4, RPMI + FCS): 0.016 µg/mL; A. baumannii MIC, RpoB H535C (A. baumannii RpoB H535C; Table 4, RPMI + FCS): 0.03 µg/mL; MIC M. abscessus [7]: 16 µg/mL; MIC H. influenzae ([2]; strain ATCC 49247, Hemophilus test medium broth): 0.06 µg/mL (≈ 0.0733 µM); MIC S. pyogenes [8]: < 0.002 µg/mL; MIC S. epidermidis ([3]; strain ATCC 12228, cation adjusted Mueller Hinton broth): < 0.002 µg/mL; MIC M. smegmatis [9]: 0.54 µg/mL; MIC S. aureus (S. aureus): 0.008 µg/mL (≈ 0.00977 µM); MIC E. faecium ([4]; strain NCTC 12204, cation adjusted Mueller Hinton broth): 0.06 µg/mL (≈ 0.0733 µM); MIC M. tuberculosis [10]: 0.01 µg/mL (≈ 0.0122 µM); MIC E. faecalis ([5]; strain ATCC 51575, cation adjusted Mueller Hinton broth): 0.5 µg/mL (≈ 0.611 µM)

Source: patent publication US20250101039A1, “RIFAMYCIN DERIVATIVES FOR THE TREATMENT OF DISEASES” (priority 2022, published 2025)
